The results in this text go back to patent US12291518B2, “Thyroid hormone receptor agonists and use thereof” (Eccogene Inc., priority 2020, dated 2025).

For one test, the target named is T1, THR alpha-LBD (Homo sapiens, UniProt P10827).
T1 construct: except that THR alpha-LBD of a final concentration 0.25 nM was used; purchased Invitrogen PV4687
Briefly: THR-α Coactivator Peptide Recruitment Assay (LanthaScreen TR-FRET). It counts as biochemical. Conditions: TR-FRET coactivator recruitment, THR alpha-LBD 0.25 nM; for EC50: read-out: THRα EC50. The procedure, abridged: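 TR-FRET coactivator recruitment with THR alpha-LBD at 0.25 nM final, Fluorescein-SRC2-2 peptide 0.1 nM and Tb-labeled anti-GST antibody 2 nM; 2 h incubation at room temperature. 520/495 nm emission ratio fitted to a four-parameter sigmoidal curve to give EC50.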
(In general: Time-resolved FRET reads energy transfer from a long-lived donor to a nearby acceptor.)

The next test has as its target T2, THR beta-LBD (Homo sapiens, UniProt P10828).
T2 construct: THR beta-LBD (the final concentration is 0.5 nM) was added to the 384-well assay plate; purchased Invitrogen PV4686
T2 sequence (P10828 217-461 limits assumed): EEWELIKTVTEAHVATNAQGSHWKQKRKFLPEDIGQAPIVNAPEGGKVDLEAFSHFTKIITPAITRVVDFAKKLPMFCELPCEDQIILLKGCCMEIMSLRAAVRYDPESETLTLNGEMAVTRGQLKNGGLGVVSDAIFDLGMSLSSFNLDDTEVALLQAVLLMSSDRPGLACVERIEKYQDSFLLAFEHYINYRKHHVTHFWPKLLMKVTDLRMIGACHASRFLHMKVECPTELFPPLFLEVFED
Briefly: THR-β Coactivator Peptide Recruitment Assay (LanthaScreen TR-FRET). In kind it is biochemical. To be noted: TR-FRET coactivator recruitment, THR beta-LBD 0.5 nM; for EC50: read-out: THRβ EC50. The procedure, abridged: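 GST-tagged THR beta-LBD (0.5 nM) with test compound recruits fluorescein-SRC2-2 coactivator peptide (0.1 nM), detected with Tb-anti-GST antibody (2 nM).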

T1 sequence (P10827 163-410 isoform P10827-2 limits assumed, other chains not shown): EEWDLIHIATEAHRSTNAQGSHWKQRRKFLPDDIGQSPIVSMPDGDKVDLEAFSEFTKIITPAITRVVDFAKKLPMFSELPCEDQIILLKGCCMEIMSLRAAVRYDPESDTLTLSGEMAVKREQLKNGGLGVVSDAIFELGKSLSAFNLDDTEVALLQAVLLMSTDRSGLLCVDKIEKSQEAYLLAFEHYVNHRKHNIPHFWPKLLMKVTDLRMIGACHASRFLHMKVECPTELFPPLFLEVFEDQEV

In the case of `O=C(CNS(=O)(=O)c1cc(Oc2c(Cl)cc(-n3nc(C(F)F)c(=O)[nH]c3=O)cc2Cl)ccc1O)NC1CC1` [Compound 59, N-cyclopropyl-2-((5-(2,6-dichloro-4-(6-(difluoromethyl)-3,5-dioxo-4,5-dihydro-1,2,4-triazin-2(3H)-yl)phenoxy)-2-hydroxyphenyl)sulfonamido)acetamide], at THR alpha-LBD, the “THRα Emax” value is recorded as “B (40~85)” and the EC50 was 200 to 1000 nM. Moreover, at THR beta-LBD, the “THRβ Emax” value is recorded as “A (90~110)” and the EC50 was in the range of 2 to 20 nM.
Regarding `CNC(=O)CNS(=O)(=O)c1cc(Oc2c(Cl)cc(-n3nc(C(F)F)c(=O)[nH]c3=O)cc2Cl)ccc1O` [Compound 60, 2-((5-(2,6-dichloro-4-(6-(difluoromethyl)-3,5-dioxo-4,5-dihydro-1,2,4-triazin-2(3H)-yl)phenoxy)-2-hydroxyphenyl)sulfonamido)-N-methylacetamide], on THR alpha-LBD, the “THRα Emax” value is reported as “B (40~85)” and the EC50 was in the range of 2 to 200 nM. Besides, at THR beta-LBD, the “THRβ Emax” value is reported as “B (75~90)” and the EC50 lay in the range of 2 to 20 nM.
Turning to `CNC(=O)[C@H]1C[C@H](NS(=O)(=O)c2cc(Oc3c(Cl)cc(-n4nc(C(F)F)c(=O)[nH]c4=O)cc3Cl)ccc2O)C1` [Compound 61, (1r,3r)-3-((5-(2,6-dichloro-4-(6-(difluoromethyl)-3,5-dioxo-4,5-dihydro-1,2,4-triazin-2(3H)-yl)phenoxy)-2-hydroxyphenyl)sulfonamido)-N-methylcyclobutane-1-carboxamide], at THR alpha-LBD, the “THRα Emax” value is “B (40~85)” and the EC50 was > 1000 nM. Moreover, on THR beta-LBD, the “THRβ Emax” value is on record as “B (75~90)” and the EC50 lay within 2 to 20 nM.
`O=C(CNS(=O)(=O)c1cc(Oc2c(Cl)cc(-n3nc(C(F)F)c(=O)[nH]c3=O)cc2Cl)ccc1O)NC1CCC1` [Compound 62, N-cyclobutyl-2-((5-(2,6-dichloro-4-(6-(difluoromethyl)-3,5-dioxo-4,5-dihydro-1,2,4-triazin-2(3H)-yl)phenoxy)-2-hydroxyphenyl)sulfonamido)acetamide]: on THR alpha-LBD, the “THRα Emax” value is given as “B (40~85)” and the EC50 was 200 to 1000 nM. Besides, on THR beta-LBD, the “THRβ Emax” value was “B (75~90)” and the EC50 was 2 to 20 nM.
The corresponding values for `O=C(CNS(=O)(=O)c1cc(Oc2c(Cl)cc(-n3nc(C(F)F)c(=O)[nH]c3=O)cc2Cl)ccc1O)N1CCC1` [Compound 63, N-[2-(azetidin-1-yl)-2-oxo-ethyl]-5-[2,6-dichloro-4-[6-(difluoromethyl)-3,5-dioxo-1,2,4-triazin-2-yl]phenoxy]-2-hydroxy-benzenesulfonamide] are “B (40~85)”, > 1000 nM, “B (75~90)” and 20 to 100 nM.
The corresponding values for `O=c1[nH]c(=O)n(-c2cc(Cl)c(Oc3cnc(O)c(S(=O)(=O)NC4CCC4)c3)c(Cl)c2)nc1C(F)F` [Compound 64, N-cyclobutyl-5-[2,6-dichloro-4-[6-(difluoromethyl)-3,5-dioxo-1,2,4-triazin-2-yl]phenoxy]-2-hydroxy-pyridine-3-sulfonamide] are “C (<40)”, > 1000 nM, “B (75~90)” and > 100 nM.
Take `COCCNS(=O)(=O)c1cc(Oc2c(Cl)cc(-n3nc(C(F)F)c(=O)[nH]c3=O)cc2Cl)ccc1O` [Compound 65, 5-[2,6-dichloro-4-[6-(difluoromethyl)-3,5-dioxo-1,2,4-triazin-2-yl]phenoxy]-2-hydroxy-N-(2-methoxyethyl) benzenesulfonamide]: at THR alpha-LBD, the “THRα Emax” value is “B (40~85)” and the EC50 lay within 2 to 200 nM. Further, on THR beta-LBD, the “THRβ Emax” value is listed as “B (75~90)” and the EC50 is < 2 nM.
The corresponding values for `O=c1[nH]c(=O)n(-c2cc(Cl)c(Oc3ccc(O)c(S(=O)(=O)N[C@@H]4CC[C@H](O)C4)c3)c(Cl)c2)nc1C(F)F` [Compound 66, 5-(2,6-dichloro-4-(6-(difluoromethyl)-3,5-dioxo-4,5-dihydro-1,2,4-triazin-2(3H)-yl)phenoxy)-2-hydroxy-N-((1R,3S)-3-hydroxycyclopentyl)benzenesulfonamide] are “B (40~85)”, 2 to 200 nM, “C (<75)” and 2 to 20 nM.
The corresponding values for `O=c1[nH]c(=O)n(-c2cc(Cl)c(Oc3ccc(O)c(S(=O)(=O)N[C@H]4CC[C@@H](O)C4)c3)c(Cl)c2)nc1C(F)F` [Compound 67, 5-(2,6-dichloro-4-(6-(difluoromethyl)-3,5-dioxo-4,5-dihydro-1,2,4-triazin-2(3H)-yl)phenoxy)-2-hydroxy-N-((1S,3R)-3-hydroxycyclopentyl)benzenesulfonamide] are “B (40~85)”, 2 to 200 nM, “B (75~90)” and 2 to 20 nM.
As to `NS(=O)(=O)c1cc(Oc2c(Cl)cc(-n3nc(C(F)F)c(=O)[nH]c3=O)cc2Cl)ccc1O` [Compound 68, 5-[2,6-dichloro-4-[6-(difluoromethyl)-3,5-dioxo-1,2,4-triazin-2-yl]phenoxy]-2-hydroxy-benzene sulfonamide], on THR alpha-LBD, the “THRα Emax” value is listed as “A (85~110)” and the EC50 is 2 to 200 nM. Moreover, at THR beta-LBD, the “THRβ Emax” value was “B (75~90)” and the EC50 lay within 2 to 20 nM.
The corresponding values for `N#C[C@H]1C[C@@H](NS(=O)(=O)c2cc(Oc3c(Cl)cc(-n4nc(C(F)F)c(=O)[nH]c4=O)cc3Cl)ccc2O)C1` [Compound 69, N-((1s,3s)-3-cyanocyclobutyl)-5-(2,6-dichloro-4-(6-(difluoromethyl)-3,5-dioxo-4,5-dihydro-1,2,4-triazin-2(3H)-yl)phenoxy)-2-hydroxybenzenesulfonamide] are “A (85~110)”, 2 to 200 nM, “A (90~110)” and < 2 nM.
The corresponding values for `O=c1[nH]c(=O)n(-c2cc(Cl)c(Oc3ccc(O)c(S(=O)(=O)NC4(CO)CC4)c3)c(Cl)c2)nc1C(F)F` [Compound 70, 5-(2,6-dichloro-4-(6-(difluoromethyl)-3,5-dioxo-4,5-dihydro-1,2,4-triazin-2(3H)-yl)phenoxy)-2-hydroxy-N-(1-(hydroxymethyl)cyclopropyl)benzenesulfonamide] are “B (40~85)”, 2 to 200 nM, “B (75~90)” and 2 to 20 nM.
Regarding `O=C(NC1CC1)C1(NS(=O)(=O)c2cc(Oc3c(Cl)cc(-n4nc(C(F)F)c(=O)[nH]c4=O)cc3Cl)ccc2O)CC1` [Compound 71, N-cyclopropyl-1-[[5-[2,6-dichloro-4-[6-(difluoromethyl)-3,5-dioxo-1,2,4-triazin-2-yl]phenoxy]-2-hydroxy-phenyl]sulfonylamino] cyclopropane carboxamide], on THR alpha-LBD, the “THRα Emax” value is “B (40~85)” and the EC50 lay in the range of 2 to 200 nM. In addition, on THR beta-LBD, the “THRβ Emax” value is reported as “A (90~110)” and the EC50 was 2 to 20 nM.
The corresponding values for `CS(=O)(=O)NC1CN(S(=O)(=O)c2cc(Oc3c(Cl)cc(-n4nc(C(F)F)c(=O)[nH]c4=O)cc3Cl)ccc2O)C1` [Compound 73, N-[l-[5-[2,6-dichloro-4-[6-(difluoromethyl)-3,5-dioxo-1,2,4-triazin-2-yl]phenoxy]-2-hydroxy-phenyl]sulfonylazetidin-3-yl] methane sulfonamide] are “B (40~85)”, 2 to 200 nM, “C (<75)” and 2 to 20 nM.
The corresponding values for `O=c1[nH]c(=O)n(-c2cc(Cl)c(Oc3ccc(O)c(S(=O)(=O)NC4CC5(CC(O)C5)C4)c3)c(Cl)c2)nc1C(F)F` (centres unmarked) [Compound 74, 5-[2,6-dichloro-4-[6-(difluoromethyl)-3,5-dioxo-1,2,4-triazin-2-yl]phenoxy]-2-hydroxy-N-(2-hydroxyspiro [3.3]heptan-6-yl) benzene sulfonamide] are “B (40~85)”, 200 to 1000 nM, “B (75~90)” and 20 to 100 nM.
The corresponding values for `O=c1[nH]c(=O)n(-c2cc(Cl)c(Oc3ccc(O)c(S(=O)(=O)N4CC[C@@H](O)C4)c3)c(Cl)c2)nc1C(F)F` [Compound 76, (R)-2-(3,5-dichloro-4-(4-hydroxy-3-((3-hydroxypyrrolidin-1-yl)sulfonyl)phenoxy)phenyl)-6-(difluoromethyl)-1,2,4-triazine-3,5(2H,4H)-dione] are “A (85~110)”, 2 to 200 nM, “B (75~90)” and < 2 nM.
For `O=c1[nH]c(=O)n(-c2cc(Cl)c(Oc3ccc(O)c(S(=O)(=O)N4CC[C@H](O)C4)c3)c(Cl)c2)nc1C(F)F` [Compound 77, (S)-2-(3,5-dichloro-4-(4-hydroxy-3-((3-hydroxypyrrolidin-1-yl)sulfonyl)phenoxy)phenyl)-6-(difluoromethyl)-1,2,4-triazine-3,5(2H,4H)-dione], at THR alpha-LBD, the “THRα Emax” value is listed as “A (85~110)” and the EC50 lay within 2 to 200 nM. For the same compound, at THR beta-LBD, the “THRβ Emax” value was “B (75~90)” and the EC50 was < 2 nM.

By EC50 is commonly meant the concentration at which the effect is half-maximal.
